Data published in PubChem BioAssay AID588439 (The Scripps Research Institute Molecular Screening Center, 2011).
The source made the active and inactive calls.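 Rule for the calls: active = EC50 at or below 10 µM; inactive = EC50 above 10 µM.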

Molecular target: Insulin-degrading enzyme (Homo sapiens) (UniProt P14735)
Assay: activators of endogenous IDE in HEK cells, dose response, cell-based, fluorescence polarization (AID 588439)
Settings: FAbeta-B cleavage fluorescence polarization

Sequence of Insulin-degrading enzyme (Homo sapiens) (P14735 whole entry, looked up): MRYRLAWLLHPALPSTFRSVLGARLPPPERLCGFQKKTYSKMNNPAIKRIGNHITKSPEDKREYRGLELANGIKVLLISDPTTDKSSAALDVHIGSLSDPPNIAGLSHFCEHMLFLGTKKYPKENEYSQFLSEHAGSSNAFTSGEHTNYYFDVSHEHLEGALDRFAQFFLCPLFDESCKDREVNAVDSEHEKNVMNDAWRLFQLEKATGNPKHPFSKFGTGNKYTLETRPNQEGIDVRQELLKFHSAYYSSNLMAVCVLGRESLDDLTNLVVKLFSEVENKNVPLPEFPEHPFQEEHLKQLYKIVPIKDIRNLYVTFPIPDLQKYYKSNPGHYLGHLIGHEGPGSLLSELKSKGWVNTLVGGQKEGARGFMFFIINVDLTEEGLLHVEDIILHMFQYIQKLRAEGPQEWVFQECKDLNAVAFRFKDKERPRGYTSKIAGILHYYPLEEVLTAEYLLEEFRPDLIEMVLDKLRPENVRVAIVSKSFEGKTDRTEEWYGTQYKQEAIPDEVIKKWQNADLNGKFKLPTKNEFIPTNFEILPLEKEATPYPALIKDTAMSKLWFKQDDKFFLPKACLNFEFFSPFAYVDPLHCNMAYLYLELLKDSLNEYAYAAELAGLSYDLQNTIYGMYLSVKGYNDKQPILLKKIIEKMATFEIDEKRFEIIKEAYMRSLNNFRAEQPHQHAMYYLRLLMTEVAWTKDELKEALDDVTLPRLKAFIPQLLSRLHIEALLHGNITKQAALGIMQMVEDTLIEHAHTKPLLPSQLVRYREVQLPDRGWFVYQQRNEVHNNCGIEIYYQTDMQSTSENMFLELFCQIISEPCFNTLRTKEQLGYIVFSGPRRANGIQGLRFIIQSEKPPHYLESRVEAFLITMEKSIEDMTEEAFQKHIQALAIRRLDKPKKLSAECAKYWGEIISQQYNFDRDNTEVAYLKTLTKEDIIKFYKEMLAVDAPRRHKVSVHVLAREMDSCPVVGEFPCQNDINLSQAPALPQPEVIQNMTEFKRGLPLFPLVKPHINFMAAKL

EC50 | SMILES
> 54.7 µM (inactive) | C#CCOCCOCCOCCNc1nc(N2CCN(C(=O)CCCCCCCCCCNC(=O)Cn3cc(CCCCCN)nn3)CC2)nc(N2CCN(C(=O)CCCCCCCCCCNC(=O)Cn3cc(C[C@@H](C)O)nn3)CC2)n1
> 54.7 µM (inactive) | C#CCOCCOCCOCCNc1nc(N2CCN(C(=O)CCCCCCCCCCNC(=O)Cn3cc(C[C@@H](C)O)nn3)CC2)nc(N2CCN(C(=O)CCCCCCCCCCNC(=O)[C@H](CCCN=C(N)N)n3cc(C[C@@H](C)CC)nn3)CC2)n1
> 54.7 µM (inactive) | C#CCOCCOCCOCCNc1nc(N2CCN(C(=O)CCCCCCCCCCNC(=O)[C@H](CO)n3cc(CCCSC)nn3)CC2)nc(N2CCN(C(=O)CCCCCCCCCCNC(=O)[C@H](CCCCN)n3cc(CCO)nn3)CC2)n1
> 54.7 µM (inactive) | C#CCOCCOCCOCCNc1nc(N2CCN(C(=O)CCCCCCCCCCNC(=O)[C@H](CCCCN)n3cc(CCO)nn3)CC2)nc(N2CCN(C(=O)CCCCCCCCCCNC(=O)[C@H](CCCN=C(N)N)n3cc(C[C@@H](C)CC)nn3)CC2)n1
